Results from patent US12263248B2, “Compounds and compositions for intracellular delivery of therapeutic agents” (ModernaTX, Inc., priority 2018, dated 2025).
Marks after values point to notes of the source that are not given here.

What was measured:
luciferase (Luc) mRNA = experiment: Luc expression, whole body bioluminescence after intravenous administration to mice; assay type: in vivo; conditions: for Novel lipid/MC3 expression ratio, 6 hr. time point, i.v. / Novel lipid/MC3 ratio, 6 hr. timepoint, i.v.: luciferase; for Novel lipid/MC3 expression ratio, 6 hr. time point, i.v.: relative to MC3 formulation; for Total Flux 3 hours / Total Flux 6 hours / Total Flux 24 hours: Luc mRNA; for Lipid/MC3 Luc expression: 0.5 mpk dose to mouse, 6 hours after administration; for Fold increase in total body Luc Flux relative to MC3 at 6 h: Table 3A; for Fold increase in total body Luc Flux relative to MC3 at 6 h / flux measured at 6 h relative to the MC3 formulation: i.v. administration; for Novel lipid/MC3 ratio, 6 hr. timepoint, i.v.: relative to MC3, Table 3G; for luciferase activity relative to MC3 LNP control: 0.5 mg/kg (mRNA dose)
How it was run: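 Luc mRNA nanoparticle formulations given intravenously to mice (n=6) at 0.5 mg/kg; whole-body bioluminescence imaged at 3, 6 and 24 h. CD-1 mice received IP D-luciferin (200 μL of 15 mg/mL) 15 min before imaging; total flux quantified by region of interest.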

hEPO mRNA = experiment: hEPO expression after intramuscular administration to mice; assay type: in vivo; conditions: for Fold increase in hEPO concentration relative to MC3: mice, 0.01 mpk, 6 hr time point; for Novel lipid/MC3 expression ratio, 6 hr. time point, i.m. hEPO: relative to MC3 formulation; for Lipid/MC3 6 h timepoint / Lipid/MC3 AUC: Table 3I, hEPO; for Novel lipid/MC3 ratio, 6 hr. timepoint, i.m. hEPO: relative to MC3, Table 3G
Method: The expression of hEPO and cytokine induction in mice intravenously administered a nanoparticle composition at a dose of 0.5 mpk were measured at 3, 6, and 24 hours. […] The expression of hEPO in mice intramuscularly administered a nanoparticle composition from Table 1B at a dose of 0.01 mpk were measured at 3, 6, and 24 hours.
Blood collection and analysis for hEPO. Blood was collected from mice or rats via the tail vein and hEPO concentrations were determined using a hEPO ELISA assay.

[1] = Encapsulation efficiency of RNA (QUANT-IT RIBOGREEN RNA assay); assay type: physicochemical; conditions: for % Encapsulation: lipid nanoparticle, ±SD within one assay run (Table 37)
How it was run: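 RiboGreen fluorescence (ex ~480, em ~520 nm) compared between intact samples and Triton X-100-lysed samples after 15 min at 37 °C in TE buffer, pH 7.5. Percent free RNA is the blank-corrected intact/disrupted ratio.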

luciferase mRNA = experiment: Luciferase expression after subcutaneous administration to mice; assay type: in vivo, female CD-1 mice; conditions: for Novel lipid/MC3 expression ratio, 6 hr. time point, s.c. Luc 0.5 mpk / Novel lipid/MC3 expression ratio, s.c. Luc 0.5 mpk (AUC) / Lipid/MC3 AUC ratio / AUC (luciferase expression): 0.5 mpk; for Lipid/MC3 AUC ratio: luciferase; for AUC (luciferase expression): whole body BLI; for Novel lipid/MC3 ratio, s.c. Luc 6 hr.: relative to MC3, Table 3G
How it was run: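 Female CD-1 mice given luciferase mRNA in lipid nanoparticle formulations subcutaneously at 0.5 mpk. Expression read by whole-body bioluminescence imaging at 3, 6 and 24 h, with ex vivo liver, spleen and injection-site luminescence at 24 h.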

[2] = Table 1B, formulated with hEPO mRNA
[3] = Table 1D, for subcutaneous administration, # formulated with hEPO mRNA
[4] = Table 1E, compositions for subcutaneous administration
[5] = nanoparticle composition with hEPO mRNA (Table 30)
[6] = Table 1C, compositions for subcutaneous administration

SMILES | Novel lipid/MC3 expression ratio, 6 hr. time point, i.v. (luciferase (Luc) mRNA; intravenous) | Total Flux 3 hours (luciferase (Luc) mRNA; mice, i.v., 0.5 mg/kg) | Total Flux 6 hours (luciferase (Luc) mRNA; mice, i.v., 0.5 mg/kg) | Total Flux 24 hours (luciferase (Luc) mRNA; mice, i.v., 0.5 mg/kg) | Fold increase in hEPO concentration relative to MC3 (hEPO mRNA) | Novel lipid/MC3 expression ratio, 6 hr. time point, i.m. hEPO (hEPO mRNA) | EE (%) ([1]; Table 1A) | EE (%) [1, 2] [%] | % EE [1, 3] [%] | Fold increase in total body Luc Flux relative to MC3 at 6 h (luciferase (Luc) mRNA) | EE [1, 5] [%] | Novel lipid/MC3 ratio, 6 hr. timepoint, i.m. hEPO (hEPO mRNA) | % EE [1, 6] [%] | Novel lipid/MC3 expression ratio, s.c. Luc 0.5 mpk (AUC) (luciferase mRNA; relative to MC3) | Lipid/MC3 AUC ratio (luciferase mRNA) | AUC (luciferase expression) (luciferase mRNA) | Novel lipid/MC3 ratio, s.c. Luc 6 hr. (luciferase mRNA) | also measured
CCCC/C=C\CCC(CC/C=C\CCCC)OC(=O)CCCCCCCN(CCO)CCCCCCCC(=O)OCCCCCCCCC [Compound 60, (5Z,12Z)-Heptadeca-5,12-dien-9-yl 8-((2-hydroxyethyl)(8-(nonyloxy)-8-oxooctyl)amino)octanoate] | 3.37 | 7.91E+10 | 9.04E+10 | 2.90E+09 | 11.2 | 11.2 | 97.6 | 95.20 | 93.0 |  |  |  |  |  |  |  |  | % EE [1, 4]: 88%; Novel lipid/MC3 expression ratio, 6 hr. time point, s.c. Luc 0.5 mpk (luciferase mRNA; relative to MC3): 1.72
CCCCCCCCC(C)OC(=O)CCCCCCCN(CCO)CCCCCCCC(=O)OC(CCCCCCCC)CCCCCCCC (stereo not drawn) [Compound 48, decan-2-yl 8-((8-(heptadecan-9-yloxy)-8-oxooctyl)(2-hydroxyethyl)amino)octanoate] |  | 8.73E+10 | 1.10E+11 | 2.92E+09 |  |  | 96.55 |  | 96.2 | 10.0 | 91.92 |  |  |  |  |  |  | Lipid/MC3 Luc expression (luciferase (Luc) mRNA): 10.0; flux measured at 6 h relative to the MC3 formulation (luciferase (Luc) mRNA; in words): ten times higher; total flux at 3 hours (luciferase (Luc) mRNA; mice, i.v., 0.5 mg/kg, comparison in words): highest; Lipid/MC3 6 h timepoint (hEPO mRNA): 8.2; Lipid/MC3 AUC (hEPO mRNA): 7.5
CCCCCCCCC(C)OC(=O)CCCCCN(CCO)CCCCCCCC(=O)OC(CCCCCCCC)CCCCCCCC (stereo not drawn) [Compound 122, Heptadecan-9-yl 8-((6-(decan-2-yloxy)-6-oxohexyl)(2-hydroxyethyl)amino)octanoate] | 3.23 | 3.64E+10 | 8.64E+10 | 1.95E+09 | 10.7 | 10.7 | 98.2 | 96.27 |  |  |  | 10.7 | 94.8 | (AUC: 3.42) | 3.42 | 5.8576E+10 (p/s) * h | 4.12 | Novel lipid/MC3 ratio, 6 hr. timepoint, i.v. (luciferase (Luc) mRNA; intravenous): 3.23
CCCCCCCCCCCOC(=O)CCCCCN(CCO)CCCCCCCC(=O)OC(CCCCCCCC)CCCCCCCC [Compound 25, Heptadecan-9-yl 8-((2-hydroxyethyl)(6-oxo-6-(undecyloxy)hexyl)amino)octanoate] | 1.89 | 2.27E+10 | 1.59E+10 | 9.77E+08 | 7.1 |  | 95.80 | 97.92 | 97.8 | 1.89 | 87.01 | 7.1 | 98.1 | (AUC: 1.7) | 1.70 | 2.9156E+10 (p/s) * h | 1.73 | Lipid/MC3 Luc expression (luciferase (Luc) mRNA): 1.89; Novel lipid/MC3 ratio, 6 hr. timepoint, i.v. (luciferase (Luc) mRNA; intravenous): 1.89; luciferase activity relative to MC3 LNP control (luciferase (Luc) mRNA; mice, intravenous): higher expression compared to MC3; % Encapsulation [1]: 95.8 ± 1.0%
CCCCCCCCCOC(=O)CCCCCCCN(CCCCCCCC(=O)OC(CCCCCCCC)CCCCCCCC)CCCNC(=O)N(C)C [Compound 110, Heptadecan-9-yl 8-((3-(3,3-dimethylureido)propyl)(8-(nonyloxy)-8-oxooctyl)amino)octanoate] |  | 1.89E+09 | 2.57E+09 | 1.11E+08 | 1.2 |  | 91.9 | 92.39 |  |  |  | 1.2 | 91.9 | (AUC: 0.76) | 0.76 | 1.2968E+10 (p/s) * h | 0.78 | 
CCCCCCCCCOC(=O)CCCCCCCN(CCCCCCCC(=O)OC(CCCCCCCC)CCCCCCCC)CCCNC(=S)N(C)C [Compound 111, Heptadecan-9-yl 8-((3-(3,3-dimethylthioureido)propyl)(8-(nonyloxy)-8-oxooctyl)amino)octanoate] | 2.59 | 1.89E+10 | 3.57E+10 | 8.86E+08 | 10.6 | 10.6 | 76.8 | 91.23 | 90.9 |  |  |  |  |  |  |  |  | i.v. Lipid/MC3 0.5 mpk, Luc, 6 h (luciferase (Luc) mRNA; Table 3B, i.v., 0.5 mpk, 6 h): 2.6; % EE [1, 4]: 88%; Novel lipid/MC3 expression ratio, 6 hr. time point, s.c. Luc 0.5 mpk (luciferase mRNA; relative to MC3): 1.16
CCCCCCCCCOC(=O)CCCCCCCN(CCO)CCCCCCCC(=O)OC(CCCCCCCC)CCCCCCCC [Compound 18, Heptadecan-9-yl 8-((2-hydroxyethyl)(8-(nonyloxy)-8-oxooctyl)amino)octanoate] |  | 1.71E+10 | 2.13E+10 | 2.51E+09 | 8.6 |  | 95.9 | 96.95 | 96.2 | 3.22 | 85.56 |  |  |  |  |  |  | fold increase in Luc expression over MC3 formulations (luciferase (Luc) mRNA; intravenous administration, in words): highest fold increase; Fold increase in Luc expression relative to MC3, Intravenous (0.5 mpk dose) (luciferase (Luc) mRNA; intravenous, 0.5 mpk): 3.23; luciferase activity relative to MC3 LNP control (luciferase (Luc) mRNA; mice, intravenous): 3 fold; Average total flux (6 h, ffluc) (luciferase (Luc) mRNA; mice, intravenous, 6 h): 2.13 × 10^10; Fold increase in average total flux relative to MC3 (luciferase (Luc) mRNA; mice, intravenous, 6 h): 3.23; % Encapsulation [1]: 97.5 ± 0.2%; EE ([1]; lipid:DSPC:Chol:PEG-DMG (50:10:38.5:1.5), hEPO mRNA): 97.34%; EE ([1]; nanoparticle composition with mRNA encoding anti-HA antibody (Table 33)): 79.3%; % EE ([1]; nanoparticle of rat tolerability study (Table 43)): 91%; Novel lipid/MC3 expression ratio, 6 hr. time point, s.c. Luc 0.05 mpk (luciferase mRNA; 0.05 mpk, relative to MC3): 2.63
CCCCCCCCC(CC)OC(=O)CCCCCCCN(CCO)CCCCCCCC(=O)OC(CCCCCCCC)CCCCCCCC (stereo not drawn) [Compound 49, heptadecan-9-yl 8-((2-hydroxyethyl)(8-oxo-8-(undecan-3-yloxy)octyl)amino)octanoate] | 9.81 | 4.48E+10 | 1.08E+11 | 1.24E+09 |  |  | 89.52 |  | 96.2 | 9.81 |  |  |  |  |  |  |  | flux measured at 6 h relative to the MC3 formulation (luciferase (Luc) mRNA; in words): ten times higher; Lipid/MC3 6 h timepoint (hEPO mRNA): 11.0; Lipid/MC3 AUC (hEPO mRNA): 9.9
